Test results reported in PMC10177510, “A Multicenter, Open-Label, Phase I/II Study of FN-1501 in Patients with Advanced Solid Tumors” (Cancers, 2023).

System: advanced solid tumors
Assay: Anti-tumor activity in patients (RECIST best response, PFS, OS)
Assay type: in vivo, human
Method: Among 64 pts enrolled in the trial, 16 failed screening and 48 (75%) were treated with FN-1501 at one of the dose levels tested. Eligible pts were ≥18 years of age with (a) relapsed or refractory AML that had exhausted or was ineligible for therapeutic options, or with ≥5% blasts in the bone marrow according to World Health Organization (WHO) 2016 criteria; or (b) solid tumors evaluable per RECIST v1.1 that had exhausted (or were ineligible for) therapeutic options likely to convey clinical benefit. Other inclusion criteria included Eastern Cooperative Oncology Group (ECOG) performance status (PS) of <2 and life expectancy ≥3 months. Pts with a clinically controlled central nervous system (CNS) tumor or metastasis and adequate organ function were eligible to participate. Ongoing use of strong CYP3A inhibitors or inducers was exclusionary unless participants were willing and able to change to use of an equivalent medication without this profile. Other exclusion criteria included current or recent major surgical procedures, anticancer therapy (chemotherapy, immunotherapy), biologic, live virus vaccine, or investigational therapy within 21 days prior to initiation of the study treatment. For patients in the AML cohort, acute promyelocytic leukemia (APML), chronic myelogenous leukemia in blast crisis (BCR-ABL), or active CNS leukemia were exclusionary.
Descriptive statistics were used for all safety, PK, and efficacy parameters. Data were summarized using descriptive statistics (number of pts, mean, median, standard deviation, minimum, and maximum) for continuous variables and using frequencies and percentages for discrete variables. Time-to-event variables were summarized using Kaplan–Meier methods and figures for the estimated median time.

In the case of `CN1CCN(Cc2ccc(NC(=O)c3[nH]ncc3Nc3ncnc4[nH]ccc34)cc2)CC1` [FN-1501], the “Progressive Disease, best RECIST response, n (%)” value (“Progressive Disease … (%)” for short) (40 mg/day, N = 4, ITT) is reported as 1 (25), the “Stable Disease, best RECIST response, n (%)” value (“Stable Disease … (%)” below) (40 mg/day, N = 4, ITT) is reported as 1 (25) and the “Complete Response, best RECIST response, n (%)” value (from here on “Complete Response … (%)”) (54 mg/day, N = 3, ITT) is reported as 0. The DCR (54 mg/day, N = 3, ITT) was 0.0%, the “Landmark Progression Free Survival Rate at 3 months (Table S6, Overall Survival)” value (54 mg/day, N = 3, ITT) was 66.7% and the “Landmark Progression Free Survival Rate at 6 months (Table S6, Overall Survival)” value (54 mg/day, N = 3, ITT) was 0.0%. The “Landmark Progression Free Survival Rate at 9 months (Table S6, Overall Survival)” value (54 mg/day, N = 3, ITT) was 0.0%, the “Landmark Progression Free Survival Rate at 12 months (Table S6, Overall Survival)” value (54 mg/day, N = 3, ITT) was 0.0% and the Median overall survival (54 mg/day, N = 3, ITT) was 3.2 months. The Median progression-free survival (54 mg/day, N = 3, ITT) was 1.4 months, the ORR (54 mg/day, N = 3, ITT) was 0.0% and the “Partial Response, best RECIST response, n (%)” value (from here on “Partial Response … (%)”) (54 mg/day, N = 3, ITT) was 0. The “Progression Free Survival Rate at 3 months” value (54 mg/day, N = 3, ITT) was 0.0%, the “Progression Free Survival Rate at 6 months” value (54 mg/day, N = 3, ITT) was 0.0% and the “Progression Free Survival Rate at 9 months” value (54 mg/day, N = 3, ITT) was 0.0%. The “Progression Free Survival Rate at 12 months” value (54 mg/day, N = 3, ITT) was 0.0%, the “Progressive Disease … (%)” value (54 mg/day, N = 3, ITT) was 2 and the “Stable Disease … (%)” value (54 mg/day, N = 3, ITT) was 0. For the same compound, the “Complete Response … (%)” value (72 mg/day, N = 3, ITT) was 0, the DCR (72 mg/day, N = 3, ITT) was 0.0% and the Median progression-free survival (72 mg/day, N = 3, ITT) was 1.3 months. The ORR (72 mg/day, N = 3, ITT) was 0.0%, the “Partial Response … (%)” value (72 mg/day, N = 3, ITT) was 0 and the “Progression Free Survival Rate at 3 months” value (72 mg/day, N = 3, ITT) was 0.0%. For the same compound, the “Progression Free Survival Rate at 6 months” value (72 mg/day, N = 3, ITT) was 0.0%, the “Progression Free Survival Rate at 9 months” value (72 mg/day, N = 3, ITT) was 0.0% and the “Progression Free Survival Rate at 12 months” value (72 mg/day, N = 3, ITT) was 0.0%. The “Progressive Disease … (%)” value (72 mg/day, N = 3, ITT) was 3, the “Stable Disease … (%)” value (72 mg/day, N = 3, ITT) was 0 and the “Complete Response … (%)” value (96 mg/day, N = 5, ITT) was 0. For the same compound, the DCR (96 mg/day, N = 5, ITT) was 40.0%, the “Landmark Progression Free Survival Rate at 3 months (Table S6, Overall Survival)” value (96 mg/day, N = 5, ITT) was 75.0% and the “Landmark Progression Free Survival Rate at 6 months (Table S6, Overall Survival)” value (96 mg/day, N = 5, ITT) was 37.5%. For the same compound, the “Landmark Progression Free Survival Rate at 9 months (Table S6, Overall Survival)” value (96 mg/day, N = 5, ITT) was 37.5%, the “Landmark Progression Free Survival Rate at 12 months (Table S6, Overall Survival)” value (96 mg/day, N = 5, ITT) was 37.5% and the Median overall survival (96 mg/day, N = 5, ITT) was 3.1 months. The Median progression-free survival (96 mg/day, N = 5, ITT) was 2.7 months, the ORR (96 mg/day, N = 5, ITT) was 0.0% and the “Partial Response … (%)” value (96 mg/day, N = 5, ITT) was 0. The “Progression Free Survival Rate at 3 months” value (96 mg/day, N = 5, ITT) was 37.5%, the “Progression Free Survival Rate at 6 months” value (96 mg/day, N = 5, ITT) was 0.0% and the “Progression Free Survival Rate at 9 months” value (96 mg/day, N = 5, ITT) was 0.0%. For the same compound, the “Progression Free Survival Rate at 12 months” value (96 mg/day, N = 5, ITT) was 0.0%, the “Progressive Disease … (%)” value (96 mg/day, N = 5, ITT) was 0 and the “Stable Disease … (%)” value (96 mg/day, N = 5, ITT) was 2 (40). For the same compound, the “Complete Response … (%)” value (128 mg/day, N = 3, ITT) was 0, the Median progression-free survival (128 mg/day, N = 3, ITT) was 3.1 months and the ORR (128 mg/day, N = 3, ITT) was 0.0%. For the same compound, the “Partial Response … (%)” value (128 mg/day, N = 3, ITT) was 0, the “Progression Free Survival Rate at 3 months” value (128 mg/day, N = 3, ITT) was 66.7% and the “Progression Free Survival Rate at 6 months” value (128 mg/day, N = 3, ITT) was 0.0%. For the same compound, the “Progression Free Survival Rate at 9 months” value (128 mg/day, N = 3, ITT) was 0.0%, the “Progression Free Survival Rate at 12 months” value (128 mg/day, N = 3, ITT) was 0.0% and the “Progressive Disease … (%)” value (128 mg/day, N = 3, ITT) was 1 (33). The “Stable Disease … (%)” value (128 mg/day, N = 3, ITT) was 1 (33), the “Complete Response … (%)” value (170 mg/day, N = 4, ITT) was 0 and the DCR (170 mg/day, N = 4, ITT) was 50.0%. For the same compound, the Median progression-free survival (170 mg/day, N = 4, ITT) was 2.2 months, the ORR (170 mg/day, N = 4, ITT) was 0.0% and the “Partial Response … (%)” value (170 mg/day, N = 4, ITT) was 0. The “Progression Free Survival Rate at 3 months” value (170 mg/day, N = 4, ITT) was 33.3%, the “Progression Free Survival Rate at 6 months” value (170 mg/day, N = 4, ITT) was 33.3% and the “Progression Free Survival Rate at 9 months” value (170 mg/day, N = 4, ITT) was 33.3%. The “Progression Free Survival Rate at 12 months” value (170 mg/day, N = 4, ITT) was 0.0%, the “Progressive Disease … (%)” value (170 mg/day, N = 4, ITT) was 1 (25) and the “Stable Disease … (%)” value (170 mg/day, N = 4, ITT) was 2 (50). The “Complete Response … (%)” value (226 mg/day, N = 4, ITT) was 0, the DCR (226 mg/day, N = 4, ITT) was 0.0% and the “Landmark Progression Free Survival Rate at 3 months (Table S6, Overall Survival)” value (226 mg/day, N = 4, ITT) was 66.7%. For the same compound, the “Landmark Progression Free Survival Rate at 6 months (Table S6, Overall Survival)” value (226 mg/day, N = 4, ITT) was 66.7%, the “Landmark Progression Free Survival Rate at 9 months (Table S6, Overall Survival)” value (226 mg/day, N = 4, ITT) was 66.7% and the “Landmark Progression Free Survival Rate at 12 months (Table S6, Overall Survival)” value (226 mg/day, N = 4, ITT) was 66.7%. For the same compound, the Median progression-free survival (226 mg/day, N = 4, ITT) was 1.1 months, the ORR (226 mg/day, N = 4, ITT) was 0.0% and the “Partial Response … (%)” value (226 mg/day, N = 4, ITT) was 0. For the same compound, the “Progression Free Survival Rate at 3 months” value (226 mg/day, N = 4, ITT) was 0.0%, the “Progression Free Survival Rate at 6 months” value (226 mg/day, N = 4, ITT) was 0.0% and the “Progression Free Survival Rate at 9 months” value (226 mg/day, N = 4, ITT) was 0.0%. For the same compound, the “Progression Free Survival Rate at 12 months” value (226 mg/day, N = 4, ITT) was 0.0%, the “Progressive Disease … (%)” value (226 mg/day, N = 4, ITT) was 1 (25) and the “Stable Disease … (%)” value (226 mg/day, N = 4, ITT) was 0. The “Duration of partial response” value (1 patient, 40 mg/day, advanced endometrial cancer) was 4.2 months, the “Complete Response … (%)” value (Total, N = 48, ITT) was 0 and the DCR (Total, N = 48, ITT) was 33.3%. For the same compound, the “Landmark Progression Free Survival Rate at 3 months (Table S6, Overall Survival)” value (Total, N = 48, ITT) was 71.7%, the Median overall survival (Total, N = 48, ITT) was 8.2 months and the Median progression-free survival (Total, N = 48, ITT) was 1.8 months. For the same compound, the ORR (Total, N = 48, ITT) was 2.1%, the “Partial Response … (%)” value (Total, N = 48, ITT) was 1 (2) and the “Progression Free Survival Rate at 3 months” value (Total, N = 48, ITT) was 31.1%. For the same compound, the “Progression Free Survival Rate at 6 months” value (Total, N = 48, ITT) was 11.3%, the “Progression Free Survival Rate at 9 months” value (Total, N = 48, ITT) was 5.7% and the “Progression Free Survival Rate at 12 months” value (Total, N = 48, ITT) was 2.8%. For the same compound, the “Progressive Disease … (%)” value (Total, N = 48, ITT) was 18, the “Stable Disease … (%)” value (Total, N = 48, ITT) was 15 (31) and the “Patients with progressive disease (PD) as best response by RECIST” value (all doses) was 38%. For the same compound, the “Patients with stable disease (SD) as best response by RECIST” value (all doses) was 31% and the “Remaining response-evaluable pts with PD” value (all doses) was 67%.
